Assay results as given in US20090018194A1, “Use of antimicrobial agents derived from alliaceous plants for the prevention and control of crop diseases, post-harvest rot and as environmental disinifectant products” (DMC Research Center, S.L., priority 2007, published 2009).

Assays:
[1] = tested on: Penicillium sp. (CPC-PT-3); test: agar diffusion test, wild fungi isolated from crown rot in bananas; assay type: cell-based; settings: incl. 6 mm disc
[2] = tested on: Pseudomonas aeruginosa ATCC 9027; test: agar diffusion test with impregnated cellulose discs; assay type: cell-based; settings: incl. 6 mm disc
[3] = tested on: Candida krusei ATCC 34135; test: as above; assay type: cell-based; settings: incl. 6 mm disc
Botrytis cinerea [4] = test: post-harvest rotting of inoculated apples, drencher treatment; assay type: in vivo; settings: 15 days of refrigeration at 5-6° C.
Method: (§1) The effectiveness of the active principle PTS (in various individual doses) was studied in the control of post-harvest rotting of pears and apples caused by the fungi Botrytis cinerea and Penicillium expansum, the principal agents of diseases in these fruits. These phytopathogens can appear in fruit being stored in a cold room and, once in the processing plant and in a later phase, form colonies and are transferred from one fruit to another by contact. The study was performed by means of a controlled inoculation test to ensure a high percentage of affected fruits, and to guarantee that this level of infection is with certainty caused by these pathogens, thereby making it possible to detect and evaluate significant differences between the different treatments. […] To perform the controlled inoculation, wild strains of Botrytris cinerea and Penicillium expansum were used which were isolated in fruit and vegetable processing plants. […] After the time indicated above had passed, the various post-harvest treatments were carried out by means of […] 25° C. for 60 seconds.

Penicillium expansum = test: as above; assay type: in vivo; settings: 15 days of refrigeration at 5-6° C.
Method: as §1

[5] = tested on: Ralstonia solanacearum Strain GM1000; assay type: cell-based; settings: in vitro tests
[6] = tested on: Colletotrichum sp. (CPC-PC-6); test: agar diffusion test, wild fungi isolated from crown rot in bananas; assay type: cell-based; settings: incl. 6 mm disc
Method: (§2) A. The “in vitro” antimicrobial activity of these compounds was tested (referenced as PTS and PTSO), at different doses, as well as their activity against a broad spectrum of bacteria, fungi and yeasts. The tests were conducted against standard micro-organisms (reference strains from different collections of standard crops) and also against wild strains isolated from different types of rot and fruits and other affected crops.
(§3) These tests of antimicrobial capacity were conducted according to the agar diffusion technique, using cellulose discs 6 mm in diameter, impregnated with the different doses under study. For the assessment of the anti-fungal capability, the medium Sabouraud glucosate agar 2% was used, inoculated with suspensions of spores prepared to a concentration on the order of 10^8 cells/ml. To assess the antibacterial capability, the cultivation medium Müller-Hinton agar was used, inoculated with suspensions of bacteria prepared to a concentration of 10^6 cells/ml.
(§4) Once the plates were inoculated, the discs previously impregnated with the different test doses of each of the compounds to be analyzed were put in place. The reading was taken after incubation of the plates by measuring the zone of inhibition that appeared, and the result was expressed in mm corresponding to the diameter of the halo that appeared (including the 6 mm of the cellulose disc).
(§5) Once the screening of the anti-microbial capability of the compounds claimed by the invention had been performed over a broad range of reference strains, their efficiency was corroborated against wild strains, which we isolated as specific pathogens that affect different crops of different geographic origins.

Fusarium sp. (CPC-PT-7) = test: as above; assay type: cell-based; settings: incl. 6 mm disc
Method: as §2, §3, §4, §5

[7] = tested on: Colletotrichum sp. (CPC-PT-5); test: as above; assay type: cell-based; settings: incl. 6 mm disc
Method: as §2, §3, §4, §5

Fusarium sp. (CPC-PT-8) = test: as above; assay type: cell-based; settings: incl. 6 mm disc
Method: as §2, §3, §4, §5

Fusarium sp. (CPC-PT-9) = test: as above; assay type: cell-based; settings: incl. 6 mm disc
Method: as §2, §3, §4, §5

[8] = tested on: Unidentified yeast (CPC-PT-10); test: as above; assay type: cell-based; settings: incl. 6 mm disc
Method: as §2, §3, §4, §5

[9] = tested on: Candida parapsilosis CCTM 1038; test: agar diffusion test with impregnated cellulose discs; assay type: cell-based; settings: incl. 6 mm disc
[10] = tested on: Penicillium sp. (CPC-PT-4); test: agar diffusion test, wild fungi isolated from crown rot in bananas; assay type: cell-based; settings: incl. 6 mm disc
Botrytis cinerea [11] = test: field control of Botrytis in strawberries, foliar spraying; assay type: in vivo; settings: after 12 days

CCCS[S+]([O-])CCC (stereo not drawn) [PTS, Propyl Propyl Thiosulfinate]
diameter of the microbial inhibition halo ([1]; 30 ppm): 0 mm | diameter of the microbial inhibition halo ([1]; 60 ppm): 0 mm | diameter of the microbial inhibition halo ([1]; 125 ppm): 10 mm | diameter of the microbial inhibition halo ([1]; 250 ppm): 13 mm | diameter of the microbial inhibition halo ([1]; 500 ppm): 15 mm | diameter of the microbial inhibition halo ([1]; 1000 ppm): 17 mm | diameter of the microbial inhibition halo ([2]; 60 ppm): 8 mm | diameter of the microbial inhibition halo ([2]; 125 ppm): 9 mm | diameter of the microbial inhibition halo ([2]; 250 ppm): 10 mm | diameter of the microbial inhibition halo ([2]; 500 ppm): 12 mm | diameter of the microbial inhibition halo ([2]; 1000 ppm): 14 mm | diameter of the microbial inhibition halo ([3]; 25 ppm): 14 mm | diameter of the microbial inhibition halo ([3]; 50 ppm): 18 mm | diameter of the microbial inhibition halo ([3]; 100 ppm): 29 mm | % of fruit affected (Botrytis cinerea [4]; Golden Delicious, 500 ppm): 0.5% | % of fruit affected (Botrytis cinerea [4]; Golden Delicious, 666 ppm): 0% | % of fruit affected (Botrytis cinerea [4]; Golden Delicious, 833 ppm): 1% | % of fruit affected (Botrytis cinerea [4]; Golden Delicious, 1666 ppm): 0% | % of fruit affected (Botrytis cinerea [4]; Red Chief, 500 ppm): 1% | % of fruit affected (Botrytis cinerea [4]; Red Chief, 666 ppm): 0% | % of fruit affected (Botrytis cinerea [4]; Red Chief, 833 ppm): 1.5% | % of fruit affected (Botrytis cinerea [4]; Red Chief, 1666 ppm): 0% | % of fruit affected (Penicillium expansum; Golden Delicious, 500 ppm): 1.4% | % of fruit affected (Penicillium expansum; Golden Delicious, 666 ppm): 0.5% | % of fruit affected (Penicillium expansum; Golden Delicious, 833 ppm): 2.5% | % of fruit affected (Penicillium expansum; Golden Delicious, 1666 ppm): 0.7% | % of fruit affected (Penicillium expansum; Red Chief, 500 ppm): 2.8% | % of fruit affected (Penicillium expansum; Red Chief, 666 ppm): 0% | % of fruit affected (Penicillium expansum; Red Chief, 833 ppm): 3.2% | % of fruit affected (Penicillium expansum; Red Chief, 1666 ppm): 2.4% | effectiveness of the application (in words) [5]: highly effective | diameter of the microbial inhibition halo ([6]; 30 ppm): 20 mm | diameter of the microbial inhibition halo ([6]; 60 ppm): 30 mm | diameter of the microbial inhibition halo ([6]; 125 ppm): 35 mm | diameter of the microbial inhibition halo ([6]; 250 ppm): 47 mm | diameter of the microbial inhibition halo ([6]; 500 ppm): 48 mm | diameter of the microbial inhibition halo ([6]; 1000 ppm): 45 mm | diameter of the microbial inhibition halo (Fusarium sp. (CPC-PT-7); 30 ppm): 0 mm | diameter of the microbial inhibition halo (Fusarium sp. (CPC-PT-7); 60 ppm): 0 mm | diameter of the microbial inhibition halo (Fusarium sp. (CPC-PT-7); 125 ppm): 15 mm | diameter of the microbial inhibition halo (Fusarium sp. (CPC-PT-7); 250 ppm): 25 mm | diameter of the microbial inhibition halo (Fusarium sp. (CPC-PT-7); 500 ppm): 25 mm | diameter of the microbial inhibition halo (Fusarium sp. (CPC-PT-7); 1000 ppm): 35 mm | diameter of the microbial inhibition halo ([7]; 30 ppm): 10 mm | diameter of the microbial inhibition halo ([7]; 60 ppm): 20 mm | diameter of the microbial inhibition halo ([7]; 125 ppm): 30 mm | diameter of the microbial inhibition halo ([7]; 250 ppm): 40 mm | diameter of the microbial inhibition halo ([7]; 500 ppm): 43 mm | diameter of the microbial inhibition halo ([7]; 1000 ppm): 43 mm | diameter of the microbial inhibition halo (Fusarium sp. (CPC-PT-8); 30 ppm): 0 mm | diameter of the microbial inhibition halo (Fusarium sp. (CPC-PT-8); 60 ppm): 10 mm | diameter of the microbial inhibition halo (Fusarium sp. (CPC-PT-8); 125 ppm): 12 mm | diameter of the microbial inhibition halo (Fusarium sp. (CPC-PT-8); 250 ppm): 15 mm | diameter of the microbial inhibition halo (Fusarium sp. (CPC-PT-8); 500 ppm): 20 mm | diameter of the microbial inhibition halo (Fusarium sp. (CPC-PT-8); 1000 ppm): 20 mm | diameter of the microbial inhibition halo (Fusarium sp. (CPC-PT-9); 30 ppm): 0 mm | diameter of the microbial inhibition halo (Fusarium sp. (CPC-PT-9); 60 ppm): 0 mm | diameter of the microbial inhibition halo (Fusarium sp. (CPC-PT-9); 125 ppm): 0 mm | diameter of the microbial inhibition halo (Fusarium sp. (CPC-PT-9); 250 ppm): 15 mm | diameter of the microbial inhibition halo (Fusarium sp. (CPC-PT-9); 500 ppm): 30 mm | diameter of the microbial inhibition halo (Fusarium sp. (CPC-PT-9); 1000 ppm): 33 mm | diameter of the microbial inhibition halo ([8]; 30 ppm): 40 mm | diameter of the microbial inhibition halo ([8]; 60 ppm): 45 mm | diameter of the microbial inhibition halo ([8]; 125 ppm): 50 mm | diameter of the microbial inhibition halo ([8]; 250 ppm): 55 mm | diameter of the microbial inhibition halo ([8]; 500 ppm): 63 mm | diameter of the microbial inhibition halo ([8]; 1000 ppm): 65 mm | diameter of the microbial inhibition halo ([9]; 25 ppm): 0 mm | diameter of the microbial inhibition halo ([9]; 50 ppm): 14 mm | diameter of the microbial inhibition halo ([9]; 100 ppm): 17 mm | diameter of the microbial inhibition halo ([10]; 30 ppm): 0 mm | diameter of the microbial inhibition halo ([10]; 60 ppm): 11 mm | diameter of the microbial inhibition halo ([10]; 125 ppm): 13 mm | diameter of the microbial inhibition halo ([10]; 250 ppm): 20 mm | diameter of the microbial inhibition halo ([10]; 500 ppm): 23 mm | diameter of the microbial inhibition halo ([10]; 1000 ppm): 25 mm | % of fruit affected (Botrytis cinerea [11]; 2000 ppm): 3.8% | No. of fruits affected (Botrytis cinerea [11]; 2000 ppm, 150 fruits): 6 | % of fruit affected (Botrytis cinerea [11]; 2400 ppm): 3.1% | No. of fruits affected (Botrytis cinerea [11]; 2400 ppm, 148 fruits): 5 | % of fruit affected (Botrytis cinerea [11]; 4800 ppm): 3.1% | No. of fruits affected (Botrytis cinerea [11]; 4800 ppm, 141 fruits): 4 | % of fruit affected (Botrytis cinerea [11]; 9600 ppm): 2% | No. of fruits affected (Botrytis cinerea [11]; 9600 ppm, 114 fruits): 2

CCCSS(=O)(=O)CCC [PTSO, Propyl Propyl Thiosulfonate]
diameter of the microbial inhibition halo ([2]; 60 ppm): 6.5 mm | diameter of the microbial inhibition halo ([2]; 125 ppm): 8 mm | diameter of the microbial inhibition halo ([2]; 250 ppm): 9 mm | diameter of the microbial inhibition halo ([2]; 500 ppm): 10 mm | diameter of the microbial inhibition halo ([2]; 1000 ppm): 12 mm | effectiveness of the application (in words) [5]: highly effective
